Assay results published in patent US6369081B1, “Muscarinic receptor agonists” (The University of Toledo, priority 1999, dated 2002).

How the values were obtained:
M2 receptors = target: T1, M2 receptors (Homo sapiens, UniProt P08172); assay: Receptor binding at M2 receptors expressed in A9 L cells (high and low affinity sites); conditions: share of high affinity sites
T1 construct: expressed in transfected cells; host or cells: A9 L cells
T1 sequence (P08172 1-466): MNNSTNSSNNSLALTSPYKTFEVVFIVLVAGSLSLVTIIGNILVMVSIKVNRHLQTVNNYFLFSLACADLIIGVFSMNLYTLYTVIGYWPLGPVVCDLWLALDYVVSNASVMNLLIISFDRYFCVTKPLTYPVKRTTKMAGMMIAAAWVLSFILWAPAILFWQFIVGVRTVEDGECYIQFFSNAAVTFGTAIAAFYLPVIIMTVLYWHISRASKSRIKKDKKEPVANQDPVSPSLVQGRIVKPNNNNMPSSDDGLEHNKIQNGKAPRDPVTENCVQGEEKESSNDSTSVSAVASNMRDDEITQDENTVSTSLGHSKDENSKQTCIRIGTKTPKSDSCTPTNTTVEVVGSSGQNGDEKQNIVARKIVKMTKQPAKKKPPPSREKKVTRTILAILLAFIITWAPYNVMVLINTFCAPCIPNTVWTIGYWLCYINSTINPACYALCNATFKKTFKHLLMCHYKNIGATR

M1 muscarinic receptors = target: T2, M1 muscarinic receptors (Homo sapiens, UniProt P11229); conditions: read-out: M1 Receptors Ki; M1 receptors expressed in A9 L cells
T2 sequence (P11229 1-460): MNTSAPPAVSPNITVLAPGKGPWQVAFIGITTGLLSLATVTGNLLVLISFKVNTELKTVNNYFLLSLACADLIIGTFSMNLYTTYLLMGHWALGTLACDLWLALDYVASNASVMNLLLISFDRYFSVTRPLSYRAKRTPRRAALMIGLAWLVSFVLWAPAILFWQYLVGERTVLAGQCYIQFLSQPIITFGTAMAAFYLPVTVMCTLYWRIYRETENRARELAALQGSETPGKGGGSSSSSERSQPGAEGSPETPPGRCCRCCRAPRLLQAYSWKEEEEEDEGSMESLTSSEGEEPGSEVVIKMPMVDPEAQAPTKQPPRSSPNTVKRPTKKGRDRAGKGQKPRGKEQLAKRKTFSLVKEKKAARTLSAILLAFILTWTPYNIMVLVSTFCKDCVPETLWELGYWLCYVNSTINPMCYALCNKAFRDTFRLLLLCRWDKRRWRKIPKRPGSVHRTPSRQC
Text: (§1) Full dose-response curves were obtained for a few compounds.

[1] = target: T3, M1 muscarinic receptors expressed in A9 L cells (Homo sapiens, UniProt P11229); conditions: mean ± s.e.m.; for PI metabolism (at 100 μM): percentage stimulation above basal levels at 100 μM relative to the carbachol response (100%), two to five assays; for PI metabolism Smax: maximal stimulation from full dose-response curves; for EC50: read-out: PI metabolism EC50, full dose-response curves
T3 sequence (P11229 1-460): T2 sequence (P11229 1-460)
Text: as §1

Compound	M2 Receptors % High affinity (M2 receptors)	Ki (M1 muscarinic receptors)	PI metabolism (at 100 μM) [1]	PI metabolism Smax [1]	EC50 [1]
CCCCCCOc1nsnc1C1=CCCN(C)C1 [Xanomeline]	26 ± 8.5%	–	–	–	–
CN1CCC=C(c2nsnc2OCCCCCCCCOc2nsnc2C2=CCCN(C)C2)C1 [(CH2)8]	–	0.19 ± 0.04 nM	8.2 ± 1.4%	–	–
CN1CCC=C(c2nsnc2OCCCCCCCCCCOc2nsnc2C2=CCCN(C)C2)C1 [(CH2)10]	–	–	76 ± 11%	–	–
CN1CCC=C(c2nsnc2OCCCCCCOc2nsnc2C2=CCCN(C)C2)C1 [(CH2)6]	–	0.61 ± 0.18 nM	18 ± 0.06%	–	–
CN1CCC=C(c2nsnc2OCCOCCOCCOCCOc2nsnc2C2=CCCN(C)C2)C1 [(CH2)4O3, 2, 2′-bis-{[3-(1-methyl-1,2,5,6-tetrahydropyrid-3-yl)-1,2,5-thiadiazol-4-yloxy]ethyloxy}-diethylether]	–	0.12 ± 0.057 nM	–	250 ± 36%	8.5 ± 1.2 nM
CN1CCC=C(c2nsnc2OCCCCCCCCCCCCOc2nsnc2C2=CCCN(C)C2)C1 [(CH2)12, 1, 12-bis-[3-(1-methyl-1,2,5,6-tetrahydropyrid-3-yl)-1,2,5-thiadiazol-4-yloxy]-dodecane]	–	–	84 ± 9.9%	190 ± 61%	340 ± 190 nM
CN1CCC=C(c2nsnc2OCCCCCCCCCOc2nsnc2C2=CCCN(C)C2)C1 [(CH2)9]	–	–	27 ± 6.2%	140 ± 34%	720 ± 370 nM
